21 molecules from US8173813B2, “Quinolone and tetrahydroquinolone and related compounds having NOS inhibitory activity” (NeurAxon, Inc., priority 2007, dated 2012) can be followed below.

Where a name gives a salt, the structure may show the parent alone. Read-outs that look alike come from different tables or passages of the source.

Holding throughout (assay type): biochemical
In test [1] the target is Nitric oxide synthase (neuronal, human recombinant) nNOS (Homo sapiens, UniProt P29475). Put plainly: Human nNOS enzyme assay ([3H]L-arginine to [3H]L-citrulline). The note with it: for Selectivity eNOS/nNOS: human enzymes, ratio of eNOS IC50 to nNOS IC50; for IC50: read-out: hnNOS IC50.
Sequence of Nitric oxide synthase (neuronal, human recombinant) nNOS (P29475 whole entry): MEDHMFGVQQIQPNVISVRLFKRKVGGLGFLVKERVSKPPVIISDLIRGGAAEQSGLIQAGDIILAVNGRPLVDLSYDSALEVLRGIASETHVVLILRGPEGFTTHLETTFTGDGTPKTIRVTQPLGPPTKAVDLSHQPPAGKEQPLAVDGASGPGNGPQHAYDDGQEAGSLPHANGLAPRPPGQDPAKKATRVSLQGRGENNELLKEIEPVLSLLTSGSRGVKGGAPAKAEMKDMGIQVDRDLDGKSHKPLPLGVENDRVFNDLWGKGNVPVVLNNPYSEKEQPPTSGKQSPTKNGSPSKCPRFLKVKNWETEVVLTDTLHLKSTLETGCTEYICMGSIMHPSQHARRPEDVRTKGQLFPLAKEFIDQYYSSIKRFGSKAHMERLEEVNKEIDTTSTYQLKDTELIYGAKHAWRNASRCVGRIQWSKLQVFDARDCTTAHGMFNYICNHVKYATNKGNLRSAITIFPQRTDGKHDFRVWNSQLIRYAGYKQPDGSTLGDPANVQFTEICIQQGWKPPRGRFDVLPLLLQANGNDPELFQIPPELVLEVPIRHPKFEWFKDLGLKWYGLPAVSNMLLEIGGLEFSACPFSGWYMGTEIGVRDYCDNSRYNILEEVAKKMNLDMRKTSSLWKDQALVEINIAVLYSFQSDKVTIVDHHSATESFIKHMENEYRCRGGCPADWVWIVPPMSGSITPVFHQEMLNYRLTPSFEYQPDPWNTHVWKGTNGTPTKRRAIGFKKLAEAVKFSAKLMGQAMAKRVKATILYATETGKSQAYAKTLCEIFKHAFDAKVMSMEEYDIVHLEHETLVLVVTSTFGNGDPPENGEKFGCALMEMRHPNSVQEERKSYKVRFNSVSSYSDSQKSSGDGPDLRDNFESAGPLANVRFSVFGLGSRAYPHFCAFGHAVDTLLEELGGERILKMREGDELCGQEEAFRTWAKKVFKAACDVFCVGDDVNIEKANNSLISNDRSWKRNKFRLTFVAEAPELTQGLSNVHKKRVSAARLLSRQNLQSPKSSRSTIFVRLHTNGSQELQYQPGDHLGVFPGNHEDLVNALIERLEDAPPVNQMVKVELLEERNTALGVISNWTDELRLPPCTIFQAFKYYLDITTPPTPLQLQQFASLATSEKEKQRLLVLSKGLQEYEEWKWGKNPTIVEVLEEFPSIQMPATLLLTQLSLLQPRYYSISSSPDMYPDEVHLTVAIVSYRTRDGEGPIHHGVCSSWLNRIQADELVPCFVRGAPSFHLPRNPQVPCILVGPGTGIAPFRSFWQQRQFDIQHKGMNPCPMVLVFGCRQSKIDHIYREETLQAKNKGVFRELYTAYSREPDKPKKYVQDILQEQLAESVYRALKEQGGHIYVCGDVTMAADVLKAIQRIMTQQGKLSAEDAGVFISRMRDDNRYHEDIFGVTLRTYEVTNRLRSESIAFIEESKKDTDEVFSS
Test [2] concerns the target Nitric oxide synthase (endothelial, human recombinant) eNOS (Homo sapiens, UniProt P29474). Put plainly: Human eNOS enzyme assay ([3H]L-arginine to [3H]L-citrulline). The note with it: read-out: heNOS IC50.
Test [3] has as its target Recombinant human inducible NOS (iNOS) (Homo sapiens, UniProt P35228). In words: Human iNOS enzyme assay, radiometric. Conditions: read-out: hiNOS IC50.
The target in another test is nNOS (Rat) (Rattus norvegicus, UniProt P29476). In words: nNOS (Rat) enzyme assay. The note with it: values in parentheses; for IC50: rat nNOS, read-out: nNOS IC50 (rodent data in parentheses). As for the experimental part: nNOS (Rat), eNOS (Rat) and iNOS (Mouse) Enzyme Assay Recombinant rat or mouse NO synthases (iNOS, eNOS, nNOS) were expressed in Sf9 cells (Sigma), 36 mg prot/ml (Bradford). […] Inhibition of NOS was determined by measuring the formation of L-[3H] citrulline from L-[3H] arginine. […] Stop buffer:100 mM Hepes, pH 5.5, 3 mM EDTA, 3 mM EGTA.

The next test deals with eNOS (Rat) (Rattus norvegicus, UniProt Q62600). Put plainly: eNOS (Rat) enzyme assay. Conditions: values in parentheses, read-out: eNOS IC50 (rodent data in parentheses).
Sequence of eNOS (Rat) (Q62600 2-1202): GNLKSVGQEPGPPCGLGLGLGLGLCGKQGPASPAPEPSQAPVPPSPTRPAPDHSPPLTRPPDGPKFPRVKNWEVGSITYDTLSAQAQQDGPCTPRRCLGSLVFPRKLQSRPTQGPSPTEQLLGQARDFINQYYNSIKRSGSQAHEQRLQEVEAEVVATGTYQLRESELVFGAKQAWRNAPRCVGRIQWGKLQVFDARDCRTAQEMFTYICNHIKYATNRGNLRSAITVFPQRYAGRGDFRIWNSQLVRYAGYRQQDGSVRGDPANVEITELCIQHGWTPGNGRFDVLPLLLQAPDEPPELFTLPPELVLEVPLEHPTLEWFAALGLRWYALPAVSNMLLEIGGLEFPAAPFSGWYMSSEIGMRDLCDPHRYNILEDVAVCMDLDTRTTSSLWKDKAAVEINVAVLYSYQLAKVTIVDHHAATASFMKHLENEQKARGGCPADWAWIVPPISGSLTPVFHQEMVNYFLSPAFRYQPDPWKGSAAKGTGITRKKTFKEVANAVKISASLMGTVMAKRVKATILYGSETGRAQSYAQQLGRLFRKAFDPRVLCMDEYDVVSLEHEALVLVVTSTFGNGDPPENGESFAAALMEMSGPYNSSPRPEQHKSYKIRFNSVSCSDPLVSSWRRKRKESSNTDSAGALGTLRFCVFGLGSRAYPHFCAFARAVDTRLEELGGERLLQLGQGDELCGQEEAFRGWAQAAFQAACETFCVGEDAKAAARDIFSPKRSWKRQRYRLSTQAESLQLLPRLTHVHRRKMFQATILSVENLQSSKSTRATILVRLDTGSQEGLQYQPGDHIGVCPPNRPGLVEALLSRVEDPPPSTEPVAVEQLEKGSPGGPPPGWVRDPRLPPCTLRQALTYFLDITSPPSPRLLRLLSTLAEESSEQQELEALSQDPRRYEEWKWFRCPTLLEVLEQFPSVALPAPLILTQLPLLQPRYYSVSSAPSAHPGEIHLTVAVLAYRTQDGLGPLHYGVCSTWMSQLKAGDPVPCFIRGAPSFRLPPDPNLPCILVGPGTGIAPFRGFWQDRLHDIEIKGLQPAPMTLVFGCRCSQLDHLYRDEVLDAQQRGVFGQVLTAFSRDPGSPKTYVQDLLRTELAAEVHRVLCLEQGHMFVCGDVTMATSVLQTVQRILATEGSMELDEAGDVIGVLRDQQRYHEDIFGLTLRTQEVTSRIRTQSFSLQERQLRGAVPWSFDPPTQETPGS
A further test concerns the target iNOS (Mouse) (Mus musculus, UniProt P29477). Put plainly: iNOS (Mouse) enzyme assay. The note with it: values in parentheses, read-out: iNOS IC50 (rodent data in parentheses). As for the experimental part: nNOS (Rat), eNOS (Rat) and iNOS (Mouse) Enzyme Assay Recombinant rat or mouse NO synthases (iNOS, eNOS, nNOS) were expressed in Sf9 cells (Sigma), 36 mg prot/ml (Bradford). […] Inhibition of NOS was determined by measuring the formation of L-[3H] citrulline from L-[3H] arginine. […] Stop buffer:100 mM Hepes, pH 5.5, 3 mM EDTA, 3 mM EGTA. Enzyme and inhibitor were pre-incubated for 35 min in the presence of NADPH before addition of arginine to initiate the reaction.

The mark [4] stands for this setting: human recombinant nNOS, values without parentheses.
Where [5] appears, read: human recombinant eNOS, values without parentheses.
Setting [6] is: human recombinant iNOS, values without parentheses.

Sequence of Recombinant human inducible NOS (iNOS) (P35228 whole entry): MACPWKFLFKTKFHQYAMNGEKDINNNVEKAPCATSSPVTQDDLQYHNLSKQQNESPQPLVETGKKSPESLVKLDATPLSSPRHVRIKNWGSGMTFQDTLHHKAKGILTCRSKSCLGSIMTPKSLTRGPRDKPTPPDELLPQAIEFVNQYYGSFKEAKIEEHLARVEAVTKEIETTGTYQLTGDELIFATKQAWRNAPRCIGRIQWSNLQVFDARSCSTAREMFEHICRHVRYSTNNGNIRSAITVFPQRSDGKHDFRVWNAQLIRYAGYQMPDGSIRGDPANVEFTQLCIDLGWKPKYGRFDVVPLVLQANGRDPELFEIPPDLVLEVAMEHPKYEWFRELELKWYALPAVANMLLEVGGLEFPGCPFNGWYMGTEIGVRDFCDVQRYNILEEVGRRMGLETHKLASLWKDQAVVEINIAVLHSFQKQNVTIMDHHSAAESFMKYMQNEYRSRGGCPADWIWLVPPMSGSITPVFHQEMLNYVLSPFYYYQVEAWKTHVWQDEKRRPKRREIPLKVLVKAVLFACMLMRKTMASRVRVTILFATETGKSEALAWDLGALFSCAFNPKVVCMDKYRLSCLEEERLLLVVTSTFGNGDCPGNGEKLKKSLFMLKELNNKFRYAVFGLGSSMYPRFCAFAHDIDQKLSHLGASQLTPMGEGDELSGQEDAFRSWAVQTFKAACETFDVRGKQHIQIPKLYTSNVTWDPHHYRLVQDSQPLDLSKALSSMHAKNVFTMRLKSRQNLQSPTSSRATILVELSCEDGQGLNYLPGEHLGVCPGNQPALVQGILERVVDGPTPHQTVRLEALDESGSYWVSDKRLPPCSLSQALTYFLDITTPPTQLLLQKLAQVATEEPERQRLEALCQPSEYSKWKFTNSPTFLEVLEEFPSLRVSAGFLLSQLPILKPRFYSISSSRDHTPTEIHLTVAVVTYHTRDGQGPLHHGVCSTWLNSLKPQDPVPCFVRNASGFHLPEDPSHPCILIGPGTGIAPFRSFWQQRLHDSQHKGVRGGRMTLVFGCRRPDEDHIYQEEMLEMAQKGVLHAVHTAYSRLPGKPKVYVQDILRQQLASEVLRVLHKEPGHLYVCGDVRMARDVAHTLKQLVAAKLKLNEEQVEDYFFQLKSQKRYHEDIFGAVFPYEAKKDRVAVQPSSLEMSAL
Sequence of Nitric oxide synthase (endothelial, human recombinant) eNOS (P29474 2-1203): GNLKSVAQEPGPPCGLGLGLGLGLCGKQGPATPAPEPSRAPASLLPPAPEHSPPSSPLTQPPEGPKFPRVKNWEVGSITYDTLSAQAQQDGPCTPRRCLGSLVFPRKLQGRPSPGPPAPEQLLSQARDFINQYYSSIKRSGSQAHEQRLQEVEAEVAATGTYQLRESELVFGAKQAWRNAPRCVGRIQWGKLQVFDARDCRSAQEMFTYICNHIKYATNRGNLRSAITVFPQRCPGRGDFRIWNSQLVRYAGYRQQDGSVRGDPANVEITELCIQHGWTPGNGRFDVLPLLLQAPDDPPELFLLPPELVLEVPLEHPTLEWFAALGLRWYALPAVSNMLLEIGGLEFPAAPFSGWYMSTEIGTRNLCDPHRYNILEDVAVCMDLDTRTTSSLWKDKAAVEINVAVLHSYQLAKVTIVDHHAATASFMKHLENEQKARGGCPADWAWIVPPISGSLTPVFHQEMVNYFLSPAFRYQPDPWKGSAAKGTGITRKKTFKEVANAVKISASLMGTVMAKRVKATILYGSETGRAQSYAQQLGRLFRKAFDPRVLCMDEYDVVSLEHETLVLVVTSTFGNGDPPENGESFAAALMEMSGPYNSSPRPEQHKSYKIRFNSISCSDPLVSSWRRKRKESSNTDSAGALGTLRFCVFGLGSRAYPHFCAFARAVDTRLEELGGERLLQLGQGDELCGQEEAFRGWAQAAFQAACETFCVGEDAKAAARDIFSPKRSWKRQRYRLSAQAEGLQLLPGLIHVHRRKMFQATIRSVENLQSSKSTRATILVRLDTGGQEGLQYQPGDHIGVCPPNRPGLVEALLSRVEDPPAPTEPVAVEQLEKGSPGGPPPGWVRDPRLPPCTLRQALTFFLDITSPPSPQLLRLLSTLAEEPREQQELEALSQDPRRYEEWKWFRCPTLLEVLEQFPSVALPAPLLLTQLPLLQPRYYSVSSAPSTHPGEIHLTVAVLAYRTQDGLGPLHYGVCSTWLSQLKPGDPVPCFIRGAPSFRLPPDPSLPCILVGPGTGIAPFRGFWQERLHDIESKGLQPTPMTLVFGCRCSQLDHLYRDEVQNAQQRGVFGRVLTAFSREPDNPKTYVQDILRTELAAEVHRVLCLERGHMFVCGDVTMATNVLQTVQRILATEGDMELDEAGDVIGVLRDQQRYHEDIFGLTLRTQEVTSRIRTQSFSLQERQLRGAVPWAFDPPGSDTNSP

One may read the IC50 as the concentration at which inhibition is half-maximal. For the molecule `CN1CCC(N2CCCc3cc(NC(=N)c4cccs4)ccc32)C1` (single isomer, unassigned) [Example 56, N-(1-(1-Methylpyrrolidin-3-yl)-1,2,3,4-tetrahydroquinolin-6-yl)thiophene-2-carboximidamide], in test [1], the “Selectivity eNOS/nNOS” value is 203. The IC50 in test [1] (setting [4]) was determined as 0.09 µM; in test [2] (setting [5]), 18.3 µM; in test [3] (setting [6]), 34 µM; at nNOS (Rat) it was 0.087 µM; at eNOS (Rat), 4.5 µM.

For the molecule `CN1CCC(N2CCCc3cc(NC(=N)c4cccs4)ccc32)C1` (single isomer, unassigned) [Example 57, N-(1-(1-Methylpyrrolidin-3-yl)-1,2,3,4-tetrahydroquinolin-6-yl)thiophene-2-carboximidamide], in test [1], the “Selectivity eNOS/nNOS” value worked out at 622. For the same molecule, the IC50 was 0.32 µM in test [1] (setting [4]); 199 µM in test [2] (setting [5]); 40.4 µM in test [3] (setting [6]); 0.504 µM at nNOS (Rat); more than 100 µM on eNOS (Rat).

`N=C(Nc1ccc2c(c1)CCCN2C1CCNC1)c1cccs1` (single isomer, unassigned; (+)) [Example 66, (+)-N-(1-(pyrrolidin-3-yl)-1,2,3,4-tetrahydroquinolin-6-yl)thiophene-2-carboximidamide dihydrochloride]: the half-inhibitory concentration (IC50) stood at 0.01 µM in test [1] (setting [4]), 14.2 µM in test [2] (setting [5]), 0.1 µM on nNOS (Rat) and 2.9 µM at iNOS (Mouse).

As for `N=C(Nc1ccc2c(c1)CCCN2C1CCNC1)c1cccs1` (single isomer, unassigned; (-)) [Example 65, (−)-N-(1-(pyrrolidin-3-yl)-1,2,3,4-tetrahydroquinolin-6-yl)thiophene-2-carboximidamide dihydrochloride], the IC50 in test [1] (setting [4]) worked out at 0.31 µM; in test [2] (setting [5]), 22.5 µM; at nNOS (Rat) it was 0.28 µM; on eNOS (Rat), 9.08 µM; at iNOS (Mouse), 7.5 µM.

Turning to `Cl.Cl.N=C(Nc1ccc2c(c1)CCCN2CCN1CCCC1)c1cccs1` [Example 12, N-(1-(2-(pyrrolidin-1-yl)ethyl)-1,2,3,4-tetrahydroquinolin-6-yl)thiophene-2-carboximidamide dihydrochloride], the “Selectivity eNOS/nNOS” value in test [1] is recorded as 115. Further, the IC50 in test [1] (setting [4]) is 0.31 µM; in test [2] (setting [5]), 36 µM; at nNOS (Rat) it was 1.9 µM; on eNOS (Rat), more than 100 µM; at iNOS (Mouse), more than 100 µM.

Take `N=C(Nc1ccc2c(c1)CCCC(=O)N2CCN1CCCC1)c1cccs1` [Example 26, N-(2-Oxo-1-(2-(pyrrolidin-1-yl)ethyl)-2,3,4,5-tetrahydro-1H-benzo[b]azepin-7-yl)thiophene-2-carboximidamide]: the “Selectivity eNOS/nNOS” value in test [1] was determined as 8.1. Further, the IC50 in test [1] (setting [4]) was 9.91 µM; in test [2] (setting [5]) it was 80.1 µM; in test [3] (setting [6]), more than 100 µM.

Turning to `CN(C)CCN1C(=O)CCCc2cccc(NC(=N)c3cccs3)c21` [Example 33, N-(1-(2-(Dimethylamino)ethyl)-2-oxo-2,3,4,5-tetrahydro-1H-benzo[b]azepin-9-yl)thiophene-2-carboximidamide], the “Selectivity eNOS/nNOS” value in test [1] is listed as 90. The figures for the half-inhibitory concentration (IC50) in test [1] (setting [4]), in test [2] (setting [5]) and in test [3] (setting [6]) were 2.2 µM, 193 µM and more than 100 µM, respectively.

Consider `CNCCN1C(=O)CCc2cc(NC(=N)c3cccs3)ccc21` [Example 34, N-(1-(2-(Methylamino)ethyl)-2-oxo-1,2,3,4-tetrahydroquinolin-6-yl)thiophene-2-carboximidamide], for which, in test [1], the “Selectivity eNOS/nNOS” value is listed as 115. Also, the IC50 in test [1] (setting [4]) turned out to be 0.39 µM; in test [2] (setting [5]), 45.1 µM; in test [3] (setting [6]), 1.28 µM.

With `CN1CCC(N2CCCc3cc(NC(=N)c4cccs4)ccc32)C1` (stereo not drawn) [Example 35, N-(1-(1-Methylpyrrolidin-3-yl)-1,2,3,4-tetrahydroquinolin-6-yl)thiophene-2-carboximidamide], the IC50 in test [1] is 0.36 µM; in test [2] it was 27.5 µM; in test [3] (setting [6]), 4.9 µM.

Regarding `N=C(Nc1ccc2c(c1)CCCC(=O)N2CCN1CCCCC1)c1cccs1` [Example 38, N-(2-Oxo-1-(2-(piperidin-1-yl)ethyl)-2,3,4,5-tetrahydro-1H-benzo[b]azepin-7-yl)thiophene-2-carboximidamide], the “Selectivity eNOS/nNOS” value in test [1] is 14.8. The IC50 was determined as 10 µM in test [1] (setting [4]), 148 µM in test [2] (setting [5]) and 8.21 µM in test [3] (setting [6]).

For `CN1CCC(N2CCCCc3cc(NC(=N)c4cccs4)ccc32)CC1` [Example 39, N-(1-(1-Methylpiperidin-4-yl)-2,3,4,5-tetrahydro-1H-benzo[b]azepin-7-yl)thiophene-2-carboximidamide], the IC50 in test [1] stood at 2.96 µM; in test [2], 20 µM; in test [3], 1.34 µM.

`N=C(Nc1ccc2c(c1)CCCCN2CCN1CCCCC1)c1cccs1` [Example 40, N-(1-(2-(Piperidin-1-yl)ethyl)-2,3,4,5-tetrahydro-1H-benzo[b]azepin-7-yl)thiophene-2-carboximidamide]: the figures for the IC50 in test [1] (setting [4]), in test [2] and in test [3] (setting [6]) were 1.9 µM, 56.3 µM and more than 100 µM, respectively.

Consider `CN(C)CCN1C(=O)CCc2cc(NC(=N)c3cccs3)cc(F)c21` [Example 41, N-(1-(2-(Dimethylamino)ethyl)-8-fluoro-2-oxo-1,2,3,4-tetrahydroquinolin-6-yl)thiophene-2-carboximidamide], for which the IC50 was 3.3 µM in test [1] (setting [4]), 194 µM in test [2] and 3.27 µM in test [3] (setting [6]).

Take `CN(C)CCN1CCCc2cc(NC(=N)c3cccs3)cc(F)c21` [Example 42, N-(1-(2-(Dimethylamino)ethyl)-8-fluoro-1,2,3,4-tetrahydroquinolin-6-yl)thiophene-2-carboximidamide]: the IC50 in test [1] (setting [4]) is 0.09 µM; in test [2], 24.3 µM; in test [3] (setting [6]), more than 100 µM.

With `N=C(Nc1ccc2c(c1)C(C1CCNC1)C(=O)N2)c1cccs1` (stereo not drawn) [Example 43, N-(2-Oxo-3-(pyrrolidin-3-yl)indolin-5-yl)thiophene-2-carboximidamide], the “Selectivity eNOS/nNOS” value in test [1] came out at 152. The IC50 in test [1] (setting [4]) was 0.18 µM; in test [2] (setting [5]), 27.4 µM; in test [3] (setting [6]) it was 7.03 µM.

As to `N=C(Nc1ccc2c(c1)CCCCN2C1CCNC1)c1cccs1` (stereo not drawn) [Example 48, N-(1-(Pyrrolidin-3-yl)-2,3,4,5-tetrahydro-1H-benzo[b]azepin-7-yl)thiophene-2-carboximidamide], the IC50 in test [1] came out at 0.33 µM; in test [2], 75 µM; in test [3] (setting [6]) it was 0.61 µM.

In the case of `CN1CCCC1CCN1CCCc2cc(NC(=N)c3cccs3)cc(F)c21.Cl.Cl` (stereo not drawn) [Example 55, N-(8-Fluoro-1-(2-(1-methylpyrrolidin-2-yl)ethyl)-1,2,3,4-tetrahydroquinolin-6-yl)thiophene-2-carboximidamide dihydrochloride], in test [1], the “Selectivity eNOS/nNOS” value is recorded as 181. Further, the IC50 in test [1] (setting [4]) was 0.08 µM; in test [2] (setting [5]) it was 14.5 µM; in test [3] (setting [6]), more than 100 µM.

With `N=C(Nc1ccc2c(c1)CCCCN2C1CCNCC1)c1cccs1` [Example 58, N-(1-(piperidin-4-yl)-2,3,4,5-tetrahydro-1H-benzo[b]azepin-7-yl)thiophene-2-carboximidamide], the results for the half-maximal inhibitory concentration (IC50) in test [1] (setting [4]), in test [2] and in test [3] (setting [6]) were 2.3 µM, 66.3 µM and more than 100 µM, respectively.

As for `CN(C)CCCN1CCCc2cc(NC(=N)c3cccs3)ccc21` [Example 59, N-(1-(3-(Dimethylamino)propyl)-1,2,3,4-tetrahydroquinolin-6-yl)thiophene-2-carboximidamide], the figures for the concentration for half-maximal inhibition (IC50) in test [1] (setting [4]), in test [2] and in test [3] (setting [6]) were 0.27 µM, 22.4 µM and 34.5 µM, respectively.

In the case of `CCNCCN1CCCc2cc(NC(=N)c3cccs3)ccc21` [Example 60, N-(1-(2-(Ethylamino)ethyl)-1,2,3,4-tetrahydroquinolin-6-yl)thiophene-2-carboximidamide], the “Selectivity eNOS/nNOS” value in test [1] was 135. For the same molecule, the 50% inhibitory concentration (IC50) was 0.39 µM in test [1] (setting [4]); 52.8 µM in test [2] (setting [5]); 16.6 µM in test [3] (setting [6]); 0.44 µM on nNOS (Rat); more than 100 µM on eNOS (Rat). On nNOS (Rat) (rodent enzymes), the “Selectivity eNOS/nNOS (rodent data in parentheses)” value is recorded as “(>227)”.

Regarding `CN(CCO)CCN1CCCc2cc(NC(=N)c3cccs3)ccc21` [Example 62, N-(1-(2-((2-Hydroxyethyl)(methyl)amino)ethyl)-1,2,3,4-tetrahydroquinolin-6-yl)thiophene-2-carboximidamide], the “Selectivity eNOS/nNOS” value in test [1] is given as 492. The half-maximal inhibitory concentration (IC50) in test [1] (setting [4]) was determined as 0.13 µM; in test [2] (setting [5]), 63.9 µM; at nNOS (Rat), 0.94 µM; on iNOS (Mouse), 7 µM.
